# Experimental data from patent publication US6503449B1, “Process for the control of microbial contamination in water-based solids suspensions” (Ciba Specialty Chemicals Corporation, priority 1998, dated 2003).
# What was measured:
# Format in all cases: cell-based
# [1] = tested on: Gram positive organisms; test: Single/multiple pass through 2406 Nearfield Accoustical Processor with biocide, Nutrient Agar plates; conditions: 250 ppm; after four passes through the sonicator, 16 kHz and 20 kHz, 750 kg/hr; initial count 4.8×10^6 cfu per millilitre
# From the text: (§1) A mixture of Pigment Red 23,215.5 parts, Emulan OG (RTM) (35% solution in water), 153.7 parts, tributyl phosphate, 2 parts, and water, 128.8 parts are dispersed by re-circulation through a Bachofen KDL200 bead-mill until colouristic properties are within specification of UNISPERSE (RTM) Red RBS-PI as detailed in Example 1 and adjusted to pH 8.0-8.5 with 20% sodium hydroxide solution. This material is identified as having a bacterial count of 4.8×10^6 colony-forming units (cfu) per millilitre comprised of a mixture of Gram positive and Gram negative bacteria. It is treated with 250 parts per million(ppm) of pentane 1,5-dialdehyde and pumped through a 2406 Nearfield Accoustical Processor sonicating at 16 kHz and 20 kHz respectively with a plate separation of 6 mm (approximately) at a flow rate of 750 kg/hr. Assessment bacterial activity is then done by spreading a sample of the pigment dispersion on Nutrient Agar(NA) plates and incubating at 30° C. for 48 hours. […] The temperature rise is 1° C. per pass, from a starting value of 20° C.
# [2] = tested on: Gram negative organisms; test: as above; conditions: 250 ppm; after one pass through the sonicator, 16 kHz and 20 kHz, 750 kg/hr; initial count 4.8×10^6 cfu per millilitre
# From the text: as §1
# [3] = tested on: Xanthomonas maltophilia and Pseudomonas mendocina; test: Sonication of Pigment Red 53.1 dispersion with biocide, bacterial contamination check
# From the text: A mixture of Pigment Red 23, available from Ciba Specialty Chemicals(UK) Ltd., 215.5 parts, Emulan OG (RTM) (35% solution in water), available from BASF, 153.7 parts, tributyl phosphate, available from Albright & Wilson, 2 parts, and water, 128.8 parts, are dispersed by re-circulation through a Bachofen KDL200 bead-mill until colouristic properties are within specification of UNISPERSE (RTM) Red RBS-PI, available from Ciba Specialty Chemicals(UK) Ltd., and adjusted to pH 8.0-8.5 with 20% sodium hydroxide solution. This material is identified as containing the Gram negative bacterium, Pseudomonas putida. 50 millilitre aliquots of this dispersion containing levels of glutaraldehyde (pentane-1,5-dialdehyde), available as the trade product Protectol GDA form BASF or Ucarcide from Union Carbide, between 0 parts per million (ppm) and 2000 ppm are sonicated using a Branson MSE sonicator with a 19 mm horn probe resonating at 20 kHz with an amplitude of 6 microns. Sonication is undertaken in a 100 millilitre glass beaker, diameter 38 mm, with magnetic flea agitator and cooled in a water/ice bath to maintain temperature at 28-32° C. Bacterial growth in each sample is assessed at 5 minute intervals by streaking each dispersion on to Nutrient Agar(NA) plates and incubating the plates for a minimum of 48 hours at 30° C. The plates are then examined for bacterial colonies and expressed according to the following notation:
# A mixture of Pigment Red 53.1, available from S&D Chemicals Ltd., 37 parts, Emulan OG (35% solution), 25.9 parts, 2-ethylhexanoic acid, available from Barratt Chemicals Ltd., 3 parts tributyl phosphate, 0.3 parts, and water 31.74 parts are dispersed by a single pass through a Bachofen KDL Special beadmill containing 1.0 mm Yttrium-stabilised Zirconium Oxide beads. This material is identified as containing the Gram negative bacteria, Xanthomonas maltophilia and Pseudomonas mendocina. 50 millilitre aliquots of this dispersion are treated with pentane-1,5-dialdehyde (Ucarcide 250) and CIT/MIT mixture (Acticide LG) according to the process defined in Example 1 and each sample checked for bacterial contamination according to the following table: […]
smiles,measurement,setting,value
"O=CCCCC=O [glutaraldehyde, pentane-1,5-dialdehyde]","bacterial activity on Nutrient Agar plates, Gram positive organisms",[1],no Gram positive organisms are found
same,"bacterial activity on Nutrient Agar plates, Gram negative organisms",[2],no Gram negative organisms are evident
same,bacterial contamination,"[3]; 500 ppm Ucarcide 250, 3 days after sonication",+++ (heavy contamination(>10^5 cfu/ml))
same,bacterial contamination,"[3]; 500 ppm Ucarcide 250, 7 days after sonication",+++ (heavy contamination(>10^5 cfu/ml))
same,bacterial contamination,"[3]; 500 ppm Ucarcide 250, 14 days after sonication",+++ (heavy contamination(>10^5 cfu/ml))
same,bacterial contamination,"[3]; 500 ppm Ucarcide 250, 28 days after sonication",+++ (heavy contamination(>10^5 cfu/ml))
same,bacterial contamination,"[3]; 500 ppm Ucarcide 250, 90 days after sonication",+++ (heavy contamination(>10^5 cfu/ml))
same,bacterial contamination,"[3]; 500 ppm Ucarcide 250, sonicated 0 mins.",+++ (heavy contamination(>10^5 cfu/ml))
same,bacterial contamination,"[3]; 500 ppm Ucarcide 250, sonicated 5 mins.",+++ (heavy contamination(>10^5 cfu/ml))
same,bacterial contamination,"[3]; 500 ppm Ucarcide 250, sonicated 10 mins.",+++ (heavy contamination(>10^5 cfu/ml))
same,bacterial contamination,"[3]; 500 ppm Ucarcide 250, sonicated 15 mins.",+++ (heavy contamination(>10^5 cfu/ml))
same,bacterial contamination,"[3]; 500 ppm Ucarcide 250, sonicated 20 mins.",+++ (heavy contamination(>10^5 cfu/ml))
same,bacterial contamination,"[3]; 500 ppm Ucarcide 250, sonicated 25 mins.",+++ (heavy contamination(>10^5 cfu/ml))
same,bacterial contamination,"[3]; 500 ppm Ucarcide 250, sonicated 30 mins.",++ (moderate contamination(10^3-10^5 cfu/ml))
same,bacterial contamination,"[3]; 500 ppm Ucarcide 250, sonicated 35 mins.",++ (moderate contamination(10^3-10^5 cfu/ml))
same,bacterial contamination,"[3]; 500 ppm Ucarcide 250, sonicated 40 mins.",++ (moderate contamination(10^3-10^5 cfu/ml))
same,bacterial contamination,"[3]; 500 ppm Ucarcide 250, sonicated 45 mins.",++ (moderate contamination(10^3-10^5 cfu/ml))
same,bacterial contamination,"[3]; 500 ppm Ucarcide 250, sonicated 50 mins.",++ (moderate contamination(10^3-10^5 cfu/ml))
same,bacterial contamination,"[3]; 500 ppm Ucarcide 250, sonicated 55 mins.",+ (light contamination (10^0 and 10^3 cfu/ml))
same,bacterial contamination,"[3]; 500 ppm Ucarcide 250, sonicated 60 mins.",+ (light contamination (10^0 and 10^3 cfu/ml))
same,bacterial contamination,"[3]; 750 ppm Ucarcide 250, 3 days after sonication",+++ (heavy contamination(>10^5 cfu/ml))
same,bacterial contamination,"[3]; 750 ppm Ucarcide 250, 7 days after sonication",+++ (heavy contamination(>10^5 cfu/ml))
same,bacterial contamination,"[3]; 750 ppm Ucarcide 250, 14 days after sonication",+++ (heavy contamination(>10^5 cfu/ml))
same,bacterial contamination,"[3]; 750 ppm Ucarcide 250, 28 days after sonication",+++ (heavy contamination(>10^5 cfu/ml))
same,bacterial contamination,"[3]; 750 ppm Ucarcide 250, 90 days after sonication",+++ (heavy contamination(>10^5 cfu/ml))
same,bacterial contamination,"[3]; 750 ppm Ucarcide 250, sonicated 0 mins.",+++ (heavy contamination(>10^5 cfu/ml))
same,bacterial contamination,"[3]; 750 ppm Ucarcide 250, sonicated 5 mins.",+++ (heavy contamination(>10^5 cfu/ml))
same,bacterial contamination,"[3]; 750 ppm Ucarcide 250, sonicated 10 mins.",+++ (heavy contamination(>10^5 cfu/ml))
same,bacterial contamination,"[3]; 750 ppm Ucarcide 250, sonicated 15 mins.",+++ (heavy contamination(>10^5 cfu/ml))
same,bacterial contamination,"[3]; 750 ppm Ucarcide 250, sonicated 20 mins.",+++ (heavy contamination(>10^5 cfu/ml))
same,bacterial contamination,"[3]; 750 ppm Ucarcide 250, sonicated 25 mins.",+++ (heavy contamination(>10^5 cfu/ml))
same,bacterial contamination,"[3]; 750 ppm Ucarcide 250, sonicated 30 mins.",++ (moderate contamination(10^3-10^5 cfu/ml))
same,bacterial contamination,"[3]; 750 ppm Ucarcide 250, sonicated 35 mins.",++ (moderate contamination(10^3-10^5 cfu/ml))
same,bacterial contamination,"[3]; 750 ppm Ucarcide 250, sonicated 40 mins.",++ (moderate contamination(10^3-10^5 cfu/ml))
same,bacterial contamination,"[3]; 750 ppm Ucarcide 250, sonicated 45 mins.",++ (moderate contamination(10^3-10^5 cfu/ml))
same,bacterial contamination,"[3]; 750 ppm Ucarcide 250, sonicated 50 mins.",+ (light contamination (10^0 and 10^3 cfu/ml))
same,bacterial contamination,"[3]; 750 ppm Ucarcide 250, sonicated 55 mins.",+ (light contamination (10^0 and 10^3 cfu/ml))
same,bacterial contamination,"[3]; 750 ppm Ucarcide 250, sonicated 60 mins.",+ (light contamination (10^0 and 10^3 cfu/ml))
same,bacterial contamination,"[3]; 1000 ppm Ucarcide 250, 3 days after sonication",+++ (heavy contamination(>10^5 cfu/ml))
same,bacterial contamination,"[3]; 1000 ppm Ucarcide 250, 7 days after sonication",+++ (heavy contamination(>10^5 cfu/ml))
same,bacterial contamination,"[3]; 1000 ppm Ucarcide 250, 14 days after sonication",+++ (heavy contamination(>10^5 cfu/ml))
same,bacterial contamination,"[3]; 1000 ppm Ucarcide 250, 28 days after sonication",+++ (heavy contamination(>10^5 cfu/ml))
same,bacterial contamination,"[3]; 1000 ppm Ucarcide 250, 90 days after sonication",+++ (heavy contamination(>10^5 cfu/ml))
same,bacterial contamination,"[3]; 1000 ppm Ucarcide 250, sonicated 0 mins.",+++ (heavy contamination(>10^5 cfu/ml))
same,bacterial contamination,"[3]; 1000 ppm Ucarcide 250, sonicated 5 mins.",+++ (heavy contamination(>10^5 cfu/ml))
same,bacterial contamination,"[3]; 1000 ppm Ucarcide 250, sonicated 10 mins.",+++ (heavy contamination(>10^5 cfu/ml))
same,bacterial contamination,"[3]; 1000 ppm Ucarcide 250, sonicated 15 mins.",+++ (heavy contamination(>10^5 cfu/ml))
same,bacterial contamination,"[3]; 1000 ppm Ucarcide 250, sonicated 20 mins.",++ (moderate contamination(10^3-10^5 cfu/ml))
same,bacterial contamination,"[3]; 1000 ppm Ucarcide 250, sonicated 25 mins.",++ (moderate contamination(10^3-10^5 cfu/ml))
same,bacterial contamination,"[3]; 1000 ppm Ucarcide 250, sonicated 30 mins.",+ (light contamination (10^0 and 10^3 cfu/ml))
same,bacterial contamination,"[3]; 1000 ppm Ucarcide 250, sonicated 35 mins.",+ (light contamination (10^0 and 10^3 cfu/ml))
same,bacterial contamination,"[3]; 1000 ppm Ucarcide 250, sonicated 40 mins.",+ (light contamination (10^0 and 10^3 cfu/ml))
same,bacterial contamination,"[3]; 1000 ppm Ucarcide 250, sonicated 45 mins.",+ (light contamination (10^0 and 10^3 cfu/ml))
same,bacterial contamination,"[3]; 1000 ppm Ucarcide 250, sonicated 50 mins.",+ (light contamination (10^0 and 10^3 cfu/ml))
same,bacterial contamination,"[3]; 1000 ppm Ucarcide 250, sonicated 55 mins.",+ (light contamination (10^0 and 10^3 cfu/ml))
same,bacterial contamination,"[3]; 1000 ppm Ucarcide 250, sonicated 60 mins.",+ (light contamination (10^0 and 10^3 cfu/ml))
same,bacterial contamination,"[3]; 1500 ppm Ucarcide 250, 3 days after sonication",+++ (heavy contamination(>10^5 cfu/ml))
same,bacterial contamination,"[3]; 1500 ppm Ucarcide 250, 7 days after sonication",+++ (heavy contamination(>10^5 cfu/ml))
same,bacterial contamination,"[3]; 1500 ppm Ucarcide 250, 14 days after sonication",+++ (heavy contamination(>10^5 cfu/ml))
same,bacterial contamination,"[3]; 1500 ppm Ucarcide 250, 28 days after sonication",+++ (heavy contamination(>10^5 cfu/ml))
same,bacterial contamination,"[3]; 1500 ppm Ucarcide 250, 90 days after sonication",+++ (heavy contamination(>10^5 cfu/ml))
same,bacterial contamination,"[3]; 1500 ppm Ucarcide 250, sonicated 0 mins.",+++ (heavy contamination(>10^5 cfu/ml))
same,bacterial contamination,"[3]; 1500 ppm Ucarcide 250, sonicated 5 mins.",+++ (heavy contamination(>10^5 cfu/ml))
same,bacterial contamination,"[3]; 1500 ppm Ucarcide 250, sonicated 10 mins.",+++ (heavy contamination(>10^5 cfu/ml))
same,bacterial contamination,"[3]; 1500 ppm Ucarcide 250, sonicated 15 mins.",+++ (heavy contamination(>10^5 cfu/ml))
same,bacterial contamination,"[3]; 1500 ppm Ucarcide 250, sonicated 20 mins.",++ (moderate contamination(10^3-10^5 cfu/ml))
same,bacterial contamination,"[3]; 1500 ppm Ucarcide 250, sonicated 25 mins.",+ (light contamination (10^0 and 10^3 cfu/ml))
same,bacterial contamination,"[3]; 1500 ppm Ucarcide 250, sonicated 30 mins.",+ (light contamination (10^0 and 10^3 cfu/ml))
same,bacterial contamination,"[3]; 1500 ppm Ucarcide 250, sonicated 35 mins.",+ (light contamination (10^0 and 10^3 cfu/ml))
same,bacterial contamination,"[3]; 1500 ppm Ucarcide 250, sonicated 40 mins.",+ (light contamination (10^0 and 10^3 cfu/ml))
same,bacterial contamination,"[3]; 1500 ppm Ucarcide 250, sonicated 45 mins.",+ (light contamination (10^0 and 10^3 cfu/ml))
same,bacterial contamination,"[3]; 1500 ppm Ucarcide 250, sonicated 50 mins.",+ (light contamination (10^0 and 10^3 cfu/ml))
same,bacterial contamination,"[3]; 1500 ppm Ucarcide 250, sonicated 55 mins.",+ (light contamination (10^0 and 10^3 cfu/ml))
same,bacterial contamination,"[3]; 1500 ppm Ucarcide 250, sonicated 60 mins.",+ (light contamination (10^0 and 10^3 cfu/ml))
